One assay has as its target human P2X3 receptor (Homo sapiens (Human), UniProt P56373). Put plainly: Evaluation of human P2X3 receptor inhibitory activity (Fluo-3 calcium fluorescence, FDSS 3000, ATP stimulation).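 Further: stimulus was 50 nM ATP with fluorescence followed for 3 min, and the response per well was peak post-ATP fluorescence divided by the reading at measurement start.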 It is filed as cell-based. The settings on record: C6BU-1 cells stably expressing human P2X3 receptor.
human P2X3 receptor, sequence (P56373 whole entry): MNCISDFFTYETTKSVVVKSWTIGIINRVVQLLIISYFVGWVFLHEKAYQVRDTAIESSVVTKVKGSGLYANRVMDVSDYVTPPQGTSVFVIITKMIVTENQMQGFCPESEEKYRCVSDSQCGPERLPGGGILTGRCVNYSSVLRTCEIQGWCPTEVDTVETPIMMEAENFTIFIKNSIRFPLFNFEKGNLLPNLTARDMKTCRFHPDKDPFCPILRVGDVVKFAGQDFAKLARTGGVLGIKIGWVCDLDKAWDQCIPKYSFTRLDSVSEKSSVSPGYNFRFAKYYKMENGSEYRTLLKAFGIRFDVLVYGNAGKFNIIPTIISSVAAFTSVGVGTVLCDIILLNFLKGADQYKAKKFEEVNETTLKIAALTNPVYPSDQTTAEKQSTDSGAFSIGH
With `COCc1cc(/N=c2\[nH]c(=O)n(CC(C)(C)C(=O)OC)c(=O)n2Cc2ccc(Cl)cc2)ccc1OC(C)C` [Compound I-1422], the IC50 worked out at 529 nM.
The same measure, in the same setting: to `C[C@H](C(=O)O)[C@@H](C)n1c(=O)[nH]/c(=N\c2ccc(N3CCCCC3)cc2)n(Cc2ccc(Cl)cc2)c1=O` [Compound I-1458] belongs 25 nM; to `COC(=O)c1ccc(Oc2ccc(/N=c3\[nH]c(=O)n(C)c(=O)n3Cc3ccc(Cl)cc3)cc2)cc1` [Compound I-2058], 7 nM.
The same measure, in the same setting: in the case of `CCn1c(=O)[nH]/c(=N\c2ccc(Oc3ccsc3C(=O)OC)cc2)n(Cc2ccc(Cl)cc2)c1=O` [Compound I-2037] it was 340 nM.
On the same count and under the same terms, in the case of `CCn1c(=O)[nH]/c(=N\c2ccc(Oc3cccc(C(=O)O)n3)cc2)n(Cc2ccc(C)cc2)c1=O` [Compound I-2181] it was 4 nM; in that of `CC(C)Oc1ccc(/N=c2\[nH]c(=O)n(Cc3ccc[nH]c3=O)c(=O)n2Cc2ccc(Cl)cc2)cc1F` [Compound I-0685], 8 nM.
Regarding `O=c1[nH]/c(=N\c2ccc(OCC3CC3)cc2)n(Cc2ccc(Cl)cc2)c(=O)n1CCCO` [Compound I-1917], the half-inhibitory concentration (IC50) worked out at 23 nM.
On the same count and under the same terms, in the case of `CC(C)Oc1ccc(/N=c2\[nH]c(=O)n(CC(=O)NCCC3CCOCC3)c(=O)n2Cc2ccc(Cl)cc2)cc1Cl` [Compound I-0666] it was 8 nM; in that of `C[C@H](CO)Cn1c(=O)[nH]/c(=N\c2ccc3oc(CO)cc3c2)n(Cc2ccc(Cl)cc2)c1=O` [Compound I-1970], 82 nM; in that of `CCCOc1ccc(/N=c2\[nH]c(=O)n(C[C@H](C)C(=O)O)c(=O)n2Cc2ccc(Cl)cc2)cc1C` [Compound I-0711], 40 nM.
The same measure, in the same setting: to `CCOC(=O)CCn1c(=O)[nH]/c(=N\c2ccc(CC(C)C)c(C)c2)n(Cc2ccc(C)cc2)c1=O` [Compound I-1216] belongs 13 nM; to `CCCCc1ccc(/N=c2\[nH]c(=O)n(C[C@H](C)C(=O)O)c(=O)n2Cc2ccc(Cl)cc2)cc1` [Compound I-0624], 42 nM; to `Cc1ccc(Cn2c(=O)n(CCCO)c(=O)[nH]/c2=N\c2ccc(O[C@H](C)C(F)(F)F)cc2)cc1` [Compound I-1953], 16 nM.
As to `CNC(=O)c1cc(Oc2ccc(/N=c3\[nH]c(=O)[nH]c(=O)n3Cc3ccc(Cl)cc3)cc2F)ccn1` [Compound I-2101], the IC50 was 26 nM.
Same read-out and setting: in the case of `CC(C)Oc1ccc(/N=c2\[nH]c(=O)n(C[C@H]3CC(=O)N([C@@H](C)c4ccccc4)C3)c(=O)n2Cc2ccc(Cl)cc2)cc1F` [Compound I-0661] it was 7 nM.
On the same count and under the same terms, to `Cc1cc2cc(/N=c3\[nH]c(=O)n(C[C@H](C)C(=O)O)c(=O)n3Cc3ccc(Cl)cc3)ccc2[nH]1` [Compound I-0697] belongs 57 nM; to `CCOC(=O)CCn1c(=O)[nH]/c(=N\c2ccc(OC3CCC3)c(Cl)c2)n(Cc2ccc(Cl)cc2)c1=O` [Compound I-1330], 9 nM.
The same measure, in the same setting: in the case of `C[C@@H](Oc1ccc(/N=c2\[nH]c(=O)n(CC(N)=O)c(=O)n2Cc2ccc(Cl)cc2)cc1)C(F)(F)F` [Compound I-1959] it was 65 nM; in that of `CCCc1ccc(/N=c2\[nH]c(=O)n(CCC(=O)O)c(=O)n2Cc2ccc(C)cc2)cc1C` [Compound I-1223], 297 nM; in that of `COC(=O)[C@H](C)[C@H](C)n1c(=O)[nH]/c(=N\c2ccc(OC(C)C)c(C)c2)n(Cc2ccc(Cl)cc2)c1=O` [Compound I-0809], 34 nM.
Take `COC(=O)[C@@H](C)[C@@H](C)n1c(=O)[nH]/c(=N\c2ccc(N3CCCCC3)cc2)n(Cc2ccc(C)cc2)c1=O` [Compound I-1455]: the IC50 came to 32 nM.
Same read-out and setting: to `COC(=O)CCCn1c(=O)[nH]/c(=N\c2ccc(Oc3ccc(C)nc3)cc2)n(Cc2ccc(Cl)cc2)c1=O` [Compound I-1368] belongs 5 nM.
Still for that read-out and setting: to `CC(C)Oc1ccc(/N=c2\[nH]c(=O)n([C@H](C)[C@H](C)C(=O)O)c(=O)n2Cc2ccc(Cl)cc2)cc1F` [Compound I-1343] belongs 35 nM; to `CC(C)Oc1ccc(/N=c2\[nH]c(=O)n(Cc3n[nH]c(=O)o3)c(=O)n2Cc2ccc(Cl)cc2)cc1F` [Compound I-0643], 54 nM; to `CNC(=O)CCn1c(=O)[nH]/c(=N\c2ccc(O[C@H](C)C(F)(F)F)cc2)n(Cc2ccc(Cl)cc2)c1=O` [Compound I-1957], 22 nM.
As to `COCCOc1ccc(/N=c2\[nH]c(=O)n(C[C@H](C)C(=O)OC)c(=O)n2Cc2ccc(Cl)cc2)cc1Cl` [Compound I-0767], the IC50 was found to be 88 nM.
On the same count and under the same terms, in the case of `CCOc1ccc(/N=c2\[nH]c(=O)n(C[C@@H](C)C(=O)OC)c(=O)n2CC2CCCCC2)cc1Cl` [Compound I-0632] it was 11 nM; in that of `Cc1ccc(Oc2ccc(/N=c3\[nH]c(=O)n(CC(=O)NCCO)c(=O)n3Cc3ccc(Cl)cc3)cc2)cn1` [Compound I-1980], 7 nM; in that of `CCCOc1ccc(/N=c2\[nH]c(=O)n(C[C@H](C)C(=O)OC)c(=O)n2Cc2ccc(Cl)cc2)cc1` [Compound I-0619], 14 nM.

Staying with this assay, now noted: C6BU-1 cells stably expressing human P2X3 receptor, Fluo-3 fluorescence, FDSS 3000.
Turning to `C[C@@H](C(=O)O)[C@H](C)n1c(=O)[nH]/c(=N\c2ccc3sccc3c2)n(Cc2ccc(Cl)cc2)c1=O` [Compound I-1590], the IC50 turned out to be 998 nM.
Same read-out and setting: in the case of `Cc1ccc(Cn2c(Nc3ccc(OC(C)C)cc3)nc(=O)n(C(C)C)c2=O)cc1[N+](=O)[O-]` [Compound I-0218] it was 505 nM; in that of `CC(C)Oc1ccc(Nc2nc(=O)n(C(C)C)c(=O)n2Cc2ccc(F)cc2)cc1C#N` [Compound I-0227], 910 nM.
Same read-out and setting: in the case of `CCOC(=O)CN1CC(n2c(=O)[nH]/c(=N\c3ccc(OC(C)C)c(C)c3)n(Cc3ccc(Cl)cc3)c2=O)C1` [Compound I-1741] it was 55 nM.
On the same count and under the same terms, to `C[C@@H](Cn1c(=O)[nH]/c(=N\c2ccc(CC3CCCC3)cc2)n(Cc2ccc(Cl)cc2)c1=O)C(=O)O` [Compound I-1101] belongs 53 nM; to `Cc1nc2ccc(/N=c3\[nH]c(=O)n(CCC(N)=O)c(=O)n3Cc3ccc(Cl)cc3)cc2s1` [Compound I-1670], 7 nM.
Consider `COC(=O)[C@H](C)[C@H](C)n1c(=O)[nH]/c(=N\c2ccc3nc(C)[nH]c3c2)n(Cc2ccc(Cl)cc2)c1=O` [Compound I-1795], for which the IC50 was found to be 795 nM.
The same measure, in the same setting: to `CC1(C)OC[C@H](Cn2c(=O)[nH]/c(=N\c3ccc(OCC4CC4)cc3)n(Cc3ccc(Cl)cc3)c2=O)O1` [Compound I-1854] belongs 4 nM; to `CC(C)Oc1ccc(/N=c2\[nH]c(=O)n(C[C@H](C)C(=O)O)c(=O)n2Cc2ccc(I)cc2)cc1` [Compound I-1092], 69 nM.
The same measure, in the same setting: to `CCOC(=O)CCn1c(=O)[nH]/c(=N\c2ccc(OC(C)C)c(F)c2)n(CC2CCC(F)(F)CC2)c1=O` [Compound I-1884] belongs 296 nM; to `Cc1ccc(Cn2c(=O)n(CCC(=O)O)c(=O)[nH]/c2=N\c2ccc(OCC(C)(C)C)cc2)cc1` [Compound I-1071], 998 nM; to `C[C@@H](C(=O)O)[C@H](C)n1c(=O)[nH]/c(=N\c2ccc3c(c2)C(=O)CC3)n(Cc2ccc(Cl)cc2)c1=O` [Compound I-1831], 739 nM.
On the same count and under the same terms, in the case of `COC(=O)[C@@H](C)Cn1c(=O)[nH]/c(=N\c2ccc(C=C(C)C)c(F)c2)n(Cc2ccc(C)cc2)c1=O` [Compound I-1171] it was 25 nM; in that of `CCCOc1ccc(/N=c2\[nH]c(=O)n(C[C@@H](C)C(=O)O)c(=O)n2Cc2ccc(Cl)cc2)cc1` [Compound I-1035], 65 nM; in that of `COc1noc2cc(/N=c3\[nH]c(=O)n([C@@H](C)[C@@H](C)C(=O)O)c(=O)n3Cc3ccc(Cl)cc3)ccc12` [Compound I-1746], 129 nM.
Regarding `C[C@@H](C(=O)O)[C@H](C)n1c(=O)[nH]/c(=N\c2ccc3[nH]c(=O)[nH]c(=O)c3c2)n(Cc2ccc(Cl)cc2)c1=O` [Compound I-1818], the IC50 is 829 nM.
Same read-out and setting: in the case of `CC(C)Oc1ccc(/N=c2\[nH]c(=O)n([C@@H](C)[C@@H](C)C(=O)O)c(=O)n2Cc2ccc(Cl)cc2)cc1Cl` [Compound I-0923] it was 15 nM.

The assay is the same for the next values; noted with them: human P2X3 receptor, Test Example 1.
Turning to `CCOC(=O)Cn1c(=O)[nH]/c(=N\c2ccc(Oc3ccnnc3)cc2)n(Cc2ccc(Cl)cc2)c1=O` [Compound I-2664], the half-maximal inhibitory concentration (IC50) came to 3 nM.
The same measure, in the same setting: to `Cc1ccc(Cn2c(=O)n(CCC(=O)O)c(=O)[nH]/c2=N\c2c(Cl)ccc(C(F)(F)F)c2C)cc1` [Compound I-2090] belongs less than 4 nM; to `CNCCCn1c(=O)[nH]/c(=N\c2ccc(OC(C)C)c(F)c2)n(Cc2ccc(Cl)cc2)c1=O` [Compound I-2316], 51 nM; to `Cc1ccc(Cn2c(=O)n(C[C@H](O)CO)c(=O)[nH]/c2=N\c2ccc(Oc3ccon3)cc2)cc1` [Compound I-2510], 10 nM.
On the same count and under the same terms, to `COC(=O)CCn1c(=O)[nH]/c(=N\c2ccc(Oc3ncccn3)cc2)n(Cc2ccc(C)cc2)c1=O` [Compound I-2551] belongs 4 nM; to `CCCOc1ccc(/N=c2\[nH]c(=O)n([C@H](C)CC(=O)OC)c(=O)n2Cc2ccc(C)cc2)cc1Cl` [Compound I-0877], 28 nM; to `CCn1c(=O)[nH]/c(=N\c2ccc(Oc3ccc(C(=O)O)nn3)cc2)n(Cc2ccc(C)cc2)c1=O` [Compound I-2383], 15 nM.
As for `Cc1ccc(Cn2c(=O)n(CC3(C(=O)O)COC3)c(=O)[nH]/c2=N\c2ccc(CC(C)C)c(Cl)c2)cc1` [Compound I-1496], the IC50 was 9 nM.
On the same count and under the same terms, in the case of `O=c1[nH]/c(=N\c2ccc(Oc3nccs3)cc2)n(Cc2ccc(Cl)cc2)c(=O)n1CC(CO)CO` [Compound I-2437] it was 6 nM; in that of `C[C@H](Cn1c(=O)[nH]/c(=N\c2ccc(N3CCCCC3)cc2)n(Cc2ccc(Cl)cc2)c1=O)C(=O)O` [Compound I-1486], 43 nM.
Same read-out and setting: in the case of `CCn1c(=O)[nH]/c(=N\c2ccc(Oc3ccnc(NCCO)c3)cc2)n(Cc2ccc(Cl)cc2)c1=O` [Compound I-2588] it was 11 nM; in that of `CCn1c(=O)[nH]/c(=N\c2ccc(Oc3ccc(C#N)nc3)cc2)n(Cc2ccc(Cl)cn2)c1=O` [Compound I-2375], 22 nM; in that of `CCn1c(=O)[nH]/c(=N\c2ccc(Oc3cc(C(N)=O)n[nH]3)cc2)n(Cc2ccc(Cl)cc2)c1=O` [Compound I-2417], 41 nM.

Values taken from patent US9718790B2, “Triazine derivative and pharmaceutical composition having an analgesic activity comprising the same” (SHIONOGI & CO., LTD., priority 2010, dated 2017).
